Earlier results as cited in US9993551B2, “Combination therapies of EGFR inhibitors” (NOVARTIS AG, priority 2014, dated 2018).

Key:
[1] = tested on: EGFR activating and acquired resistance mutants (L858R, ex19del and T790M); conditions: targeted covalent irreversible EGFR inhibitor
[2] = tested on: EGFR mutant (L858R, ex19del and T790M) cancer models; conditions: in vitro and in vivo
WT EGFR = WT EGFR (Homo sapiens, UniProt P00533)
Chain of WT EGFR (P00533 25-1210): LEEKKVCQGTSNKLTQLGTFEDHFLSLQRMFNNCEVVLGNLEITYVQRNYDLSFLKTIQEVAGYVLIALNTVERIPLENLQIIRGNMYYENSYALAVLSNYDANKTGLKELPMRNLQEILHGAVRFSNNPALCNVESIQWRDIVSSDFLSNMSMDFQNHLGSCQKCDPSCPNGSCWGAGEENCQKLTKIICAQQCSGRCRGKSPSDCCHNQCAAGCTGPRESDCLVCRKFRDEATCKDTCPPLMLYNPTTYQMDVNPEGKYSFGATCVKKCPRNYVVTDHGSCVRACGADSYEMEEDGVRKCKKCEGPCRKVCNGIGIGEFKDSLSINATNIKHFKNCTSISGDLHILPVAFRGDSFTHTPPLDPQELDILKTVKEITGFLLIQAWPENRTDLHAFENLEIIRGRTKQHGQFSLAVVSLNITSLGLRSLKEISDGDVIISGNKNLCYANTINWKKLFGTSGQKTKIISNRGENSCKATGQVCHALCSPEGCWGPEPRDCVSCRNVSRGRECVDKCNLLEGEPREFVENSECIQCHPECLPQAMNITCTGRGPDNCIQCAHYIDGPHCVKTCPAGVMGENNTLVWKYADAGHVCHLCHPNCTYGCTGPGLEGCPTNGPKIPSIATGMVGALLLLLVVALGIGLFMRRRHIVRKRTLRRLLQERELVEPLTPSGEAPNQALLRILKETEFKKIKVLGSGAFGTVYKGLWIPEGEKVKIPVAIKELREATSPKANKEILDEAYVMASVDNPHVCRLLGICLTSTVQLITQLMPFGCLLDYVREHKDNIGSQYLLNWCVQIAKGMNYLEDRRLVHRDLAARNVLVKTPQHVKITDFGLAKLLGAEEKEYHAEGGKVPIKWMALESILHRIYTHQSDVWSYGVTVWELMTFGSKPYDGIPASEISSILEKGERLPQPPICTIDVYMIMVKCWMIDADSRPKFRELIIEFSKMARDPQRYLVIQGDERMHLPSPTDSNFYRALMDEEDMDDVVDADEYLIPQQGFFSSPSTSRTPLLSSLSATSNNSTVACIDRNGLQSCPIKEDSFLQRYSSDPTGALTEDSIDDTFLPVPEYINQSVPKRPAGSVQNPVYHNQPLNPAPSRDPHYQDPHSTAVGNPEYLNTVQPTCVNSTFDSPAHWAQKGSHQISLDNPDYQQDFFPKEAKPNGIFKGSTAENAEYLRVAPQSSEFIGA

SMILES: Cc1cc(C(=O)Nc2nc3cccc(Cl)c3n2[C@@H]2CCCCN(C(=O)/C=C/CN(C)C)C2)ccn1 [EGF816, (R,E)-N-(7-chloro-1-(1-(4-(dimethylamino)but-2-enoyl)azepan-3-yl)-1H-benzo[d]imidazol-2-yl)-2-methylisonicotinamide]
- inhibition of mutant EGFR [1]: selectively inhibits
- efficacy in EGFR mutant cancer models [2]: significant efficacy
- effect on WT EGFR (WT EGFR): sparing WT EGFR
